The target of this assay is T1, human calcium receptor (Homo sapiens, UniProt P41180).
T1 construct: expressed in transfected cells
T1 sequence (P41180 20-1078): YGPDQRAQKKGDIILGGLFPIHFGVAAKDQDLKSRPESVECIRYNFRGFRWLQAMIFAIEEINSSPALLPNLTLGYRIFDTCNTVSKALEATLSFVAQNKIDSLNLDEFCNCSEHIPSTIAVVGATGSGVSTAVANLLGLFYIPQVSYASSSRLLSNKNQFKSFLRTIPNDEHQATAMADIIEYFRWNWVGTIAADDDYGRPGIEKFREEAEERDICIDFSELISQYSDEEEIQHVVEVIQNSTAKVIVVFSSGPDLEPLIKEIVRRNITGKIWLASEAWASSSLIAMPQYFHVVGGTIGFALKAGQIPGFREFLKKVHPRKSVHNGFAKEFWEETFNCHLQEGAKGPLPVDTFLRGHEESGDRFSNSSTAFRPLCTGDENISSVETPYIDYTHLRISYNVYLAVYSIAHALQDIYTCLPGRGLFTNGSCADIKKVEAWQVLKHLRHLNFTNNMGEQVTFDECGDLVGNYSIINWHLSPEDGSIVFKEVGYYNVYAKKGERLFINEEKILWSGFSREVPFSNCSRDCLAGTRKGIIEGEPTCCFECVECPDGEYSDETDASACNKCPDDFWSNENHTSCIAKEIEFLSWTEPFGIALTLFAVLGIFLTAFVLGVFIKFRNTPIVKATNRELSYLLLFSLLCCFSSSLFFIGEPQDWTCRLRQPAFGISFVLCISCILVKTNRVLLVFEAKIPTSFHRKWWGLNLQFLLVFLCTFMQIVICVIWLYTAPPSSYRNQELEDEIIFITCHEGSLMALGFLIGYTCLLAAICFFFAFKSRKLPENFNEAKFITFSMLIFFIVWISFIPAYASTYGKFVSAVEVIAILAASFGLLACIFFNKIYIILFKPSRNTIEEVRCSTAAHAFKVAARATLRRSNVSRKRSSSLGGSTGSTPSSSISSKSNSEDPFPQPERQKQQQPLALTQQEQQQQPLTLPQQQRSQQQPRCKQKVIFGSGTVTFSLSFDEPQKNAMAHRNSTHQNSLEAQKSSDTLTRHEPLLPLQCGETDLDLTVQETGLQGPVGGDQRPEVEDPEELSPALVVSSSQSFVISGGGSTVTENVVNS
As to the kind of experiment: Calcium Receptor Inhibitor Assay. It counts as cell-based. The protocol:
This example illustrates the use of the Calcium Receptor Inhibitor Assay. […] Res. 10 Suppl. […] Intracellular Ca^2+ was measured using fluo-3, a fluorescent calcium indicator.
The procedure was as follows:
1. Cells were maintained in T-150 flasks in selection media (DMEM supplemented with 10% fetal bovine serum and 200 μg/mL hygromycin B), under 5% CO2:95% air at 37° C. and were grown up to 90% confluency.
2. The medium was decanted and the cell monolayer was washed twice with phosphate-buffered saline (PBS) kept at 37° C. After the second wash, 6 mL of 0.02% EDTA in PBS was added and incubated for 4 minutes at 37° C. Following the incubation, cells were dispersed by gentle agitation.
3. Cells from 2 or 3 flasks were pooled and pelleted (100×g). The cellular pellet was resuspended in […] of SPF-PCB+ and pelleted again by centrifugation. This washing was done twice.
SPF-PCB was made up and stored at 4° C. On the day of use, SPF-PCB was supplemented with 1 mg/mL of D-glucose and 1 mM CaCl2 and then split into two fractions. To one fraction, bovine serum albumin (BSA; fraction V, ICN) was added at 5 mg/mL (SPF-PCB+). This buffer was used for washing, loading and maintaining the cells. The BSA-free fraction was used for diluting the cells in the cuvette for measurements of fluorescence.
5. Following the incubation period, the cells were pelleted by centrifugation. The resulting pellet was washed with SPF-PCB+. After this washing, cells were resuspended in SPF-PCB+ at a density of 1–2×10^6 cells/mL.
6. For recording fluorescent signals, 300 μL of cell suspension were diluted in 1.2 mL of SPF buffer containing 1 mM CaCl2 and 1 mg/mL of D-glucose. Measurements of fluorescence were performed at 37° C. with constant stirring using a spectrofluorimeter. […] To calibrate fluorescence signals, digitonin (5 mg/mL in ethanol) was added to obtain Fmax, and the apparent Fmin was determined by adding Tris-EGTA (2.5 M Tris-Base, 0.3 M EGTA).
7. To determine the potential calcilytic activity of test compounds, cells were incubated with test compound (or vehicle as a control) for 90 seconds before increasing the concentration of extracellular Ca^2+ from 1 to 2 mM. Calcilytic compounds were detected by their ability to block, in a concentration-dependent manner, increases in the concentration of intracellular Ca^2+ elicited by extracellular Ca^2+.

Where [1] appears, read: HEK 293 4.0–7 cells stably expressing the human calcium receptor, fluo-3, read-out: IC50 for blocking increases of intracellular Ca2+ elicited by extracellular Ca2+.

A word on the IC50: it is the concentration that inhibits the measured activity by half.

Counter-ions that a name gives are not always drawn. Like-named read-outs stand apart in the source and are kept apart here. Some results are limits rather than exact numbers.

Consider `COc1ccc(CC(C)(C)NCC(O)COc2ccccc2F)cc1` (stereo not shown) [Compound 41, N-[2-Hydroxy-3-(2-fluorophenoxy)propyl]-1.1-dimethyl-2-(4-methoxyphenyl)ethylamine Hydrochloride], for which the IC50 under setting [1] was below 10 µM. Still for that read-out and setting: as for `COc1ccc(CC(C)(C)NCCCOc2cccc3ccccc23)cc1` [Compound 42, N-(3-(1-napthoxy)propyl)-1,1-dimethyl-2-(4-methoxyphenyl)], the figure is below 50 µM; as for `COc1ccc(CC(C)(C)NCC(O)COc2cccc(Cl)c2)cc1` (stereo not shown) [Compound 43, N-[2-Hydroxy-3-(3-chlorophenoxy)propyl]-1,1-dimethyl-2-(4-methoxyphenyl)ethylamine Hydrochloride], below 1 µM; as for `COc1ccc(CC(C)(C)NCC(O)COc2ccc(F)cc2)cc1` (stereo not shown) [Compound 44, N-[2-Hydroxy-3-(4-fluorophenoxy)propyl]-1,1-dimethyl-2-(4-methoxyphenyl)ethylamine Hydrochloride], below 1 µM.

`COc1ccc(CC(C)(C)NCC(O)COc2cccc(C)c2)cc1` (stereo not shown) [Compound 45, N-[2-Hydroxy-3-(3-methylphenoxy)propyl]-1,1-dimethyl-2-(4-methoxyphenyl)ethylamine Hydrochloride]: the IC50 under setting [1] was below 10 µM. Still for that read-out and setting: as for `COc1ccc(CC(C)(C)NCC(O)COc2cccc(C(F)(F)F)c2)cc1` (stereo not shown) [Compound 46, N-[2-Hydroxy-3-(3-trifluoromethylphenoxy)propyl]-1,1-dimethyl-2-(4-methoxyphenyl)ethylamine Hydrochloride], the figure is below 1 µM; as for `COc1ccc(CC(C)(C)NCC(O)COc2ccccc2C(F)(F)F)cc1` (stereo not shown) [Compound 47, N-[2-Hydroxy-3-(2-trifluoromethylphenoxylpropyl]-1,1-dimethyl-2-(4-methoxyphenyl)ethylamine Hydrochloride], below 1 µM; as for `COc1ccc(CC(C)(C)NCC(O)COc2ccccc2C(C)(C)C)cc1` (stereo not shown) [Compound 48, N-[2-Hydroxy-3-(2-t-butylphenoxy)propyl]-1,1-dimethyl-2-(4-methoxyphenyl)ethylamine Hydrochloride], below 10 µM. The same measure, in the same setting: as for `COc1ccc(CC(C)(C)NCC(O)COc2ccccc2OC)cc1` (stereo not shown) [Compound 49, N-[2-Hydroxy-3-(2-methoxyphenoxy)propyl]-1,1-dimethyl-2-(4-methoxyphenyl)ethylamine Hydrochloride], the figure is below 10 µM; as for `COc1ccc(CC(C)(C)NCC(O)COc2cccc(C(C)(C)C)c2)cc1` (stereo not shown) [Compound 50, N-[2-Hydroxy-3-(3-t-butylphenoxy)propyl]-1,1-dimethyl-2-(4-methoxyphenyl)ethylamine Hydrochloride], below 1 µM. Still for that read-out and setting: as for `COc1ccc(CC(C)(C)NCC(O)COc2ccc(C(F)(F)F)cc2)cc1` (stereo not shown) [Compound 51, N-[2-Hydroxy-3-(4-trifluoromethylphenoxy)propyl]-1,1-dimethyl-2-(4-methoxyphenyl)ethylamine Hydrochloride], the figure is below 1 µM; as for `COc1ccc(CC(C)(C)NCC(O)COc2ccccc2NC(C)=O)cc1` (stereo not shown) [Compound 52, N-[2-hydroxy-3-(2-acetamidophenoxy)propyl]-1,1-dimethyl-2(4-methoxyphenyl)ethylamine], above 50 µM.

Regarding `COc1ccc(CC(C)(C)NCCOc2ccccc2)cc1` [Compound 53, N-(2-phenoxyethyl)-1,1-dimethyl-2-(4-methoxyphenyl)ethylamine], the IC50 under setting [1] was above 50 µM. Same read-out and setting: the figure for `CC(C)(Cc1ccccc1)NCC(O)COc1ccc(C(C)(C)C)cc1` (stereo not shown) [Compound 54] is above 50 µM; for `CC(C)(Cc1ccccc1)NCC(O)COc1cccc2ccccc12` (stereo not shown) [Compound 55, N-[2-hydroxy-3-(1-naphthoxy)propyl]-1,1-dimethyl-2-phenylethylamine] it is above 50 µM; for `CC(C)(Cc1ccccc1)NCC(O)COc1ccccc1` (stereo not shown) [Compound 56, N-(2-Hydroxy-3-phenoxypropyl)-1,1-dimethyl-2-phenylethylamine Hydrochloride] it is below 50 µM. `COc1ccc(CC(C)(C)NCC(O)COc2ccc(NC(C)=O)cc2)cc1` (stereo not shown) [Compound 58, N-[2-hydroxy-3-(4-acetamidophenoxy)propyl]-1,1-dimethyl-2(4-methoxyphenyl)ethylamine]: the 50% inhibitory concentration (IC50) under setting [1] was above 50 µM. Same read-out and setting: the figure for `COc1ccc(CC(C)(C)NCC(COc2ccccc2)OC)cc1` (stereo not shown) [Compound 59, N-(2-Methoxy-3-phenoxypropyl)-1,1-dimethyl-2-(4-methoxyphenyl)ethylamine Hydrochloride] is below 10 µM; for `COc1ccc(CC(C)(C)NCC(O)COc2ccccc2-c2ccccc2)cc1` (stereo not shown) [Compound 60, N-[2-hydroxy-3-(2-phenylphenoxy)propyl]-1,1-dimethyl-2-(4-methoxyphenyl)ethylamine] it is above 50 µM.

With `COc1ccc(CC(C)(C)NCC(O)COc2cccc(-c3ccccc3)c2)cc1` (stereo not shown) [Compound 61, N-[2-hydroxy-3-(3-phenylphenoxy)propyl]-1,1-dimethyl-2-(4-methoxyphenyl)ethylamine], under setting [1], the IC50 is below 10 µM. Still for that read-out and setting: as for `COc1ccc(CC(C)(C)NCC(O)COc2ccc(-c3ccccc3)cc2)cc1` (stereo not shown) [Compound 62, N-[2-Hydroxy-3-(4-phenylphenoxy)propyl]-1,1-dimethyl-2-(4-methoxyphenyl)ethylamine], the figure is above 50 µM. As for `CCCCCCCCOCC(O)CNC(C)(C)Cc1ccc(OC)cc1` (stereo not shown) [Compound 65, N-(2-Hydroxy-3-octanoxypropyl)-1,1-dimethyl-2-(4-methoxyphenyl)ethylamine], the 50% inhibitory concentration (IC50) is below 1 µM. With `CCCCCCOCC(O)CNC(C)(C)Cc1ccc(OC)cc1` (stereo not shown) [Compound 66, N-(2-Hydroxy-3-hexanoxypropyl)-1,1-dimethyl-2-(4-methoxyphenyl)ethylamine], the IC50 is below 10 µM. In the case of `CCCCCCCCCCOCC(O)CNC(C)(C)Cc1ccc(OC)cc1` (stereo not shown) [Compound 67, N-(2-Hydroxy-3-decanoxypropyl)-1,1-dimethyl-2-(4-methoxyphenyl)ethylamine], under setting [1], the IC50 is below 1 µM.

As for `COc1ccc(CC(C)(C)NCC(O)CSc2ccccc2)cc1` (stereo not shown) [Compound 68, N-(2-Hydroxy-3-thiophenylpropyl)-1,1-dimethyl-2-(4-methoxyphenyl)ethylamine], the IC50 was below 10 µM. As to `CCCCCCCCC(O)CNC(C)(C)Cc1ccc(OC)cc1` (stereo not shown) [Compound 69, N-(2-Hydroxydecanyl)-1,1-dimethyl-2-(4-methoxyphenyl)ethylamine], the concentration for half-maximal inhibition (IC50) was below 1 µM. Consider `CCCCCCCCCCC(O)CNC(C)(C)Cc1ccc(OC)cc1` (stereo not shown) [Compound 70, N-(2-Hydroxydodecanyl)-1.1-dimethyl-2-(4-methoxyphenyl)ethylamine], for which the IC50 was above 50 µM. For the compound `C=CCCCCCCC(O)CNC(C)(C)Cc1ccc(OC)cc1` (stereo not shown) [Compound 71, N-(2-Hydroxydec-9-enyl)-1,1-dimethyl-2-(4-methoxyphenyl)ethylamine], the 50% inhibitory concentration (IC50) was below 10 µM.
